Results from patent publication US10871487B2, “FRET-based glucose-detection molecules” (priority 2016, dated 2020).

Legend:
[1] = molecular target: T1, FRET-based glucose-detection molecule D198, glucose-binding region derived from E. coli mg1B (galactose binding protein), 16 = A (Escherichia coli, UniProt P0AEE5, F39A); assay: Kd of residue 16 variant at room temperature (D198)
T1 construct: made in E. coli, purified
Excerpt: (§1) Reference is also made to FIG. 2, which is a graph that illustrates, in a generalized manner, FRET behavior of molecule 20 (and of the molecules that it represents), in accordance with some applications of the invention. Three important features of molecules suitable for FRET-based glucose detection are: • (1) High contrast. That is, a large difference between the FRET:F ratio in the disassociated state and the FRET:F ratio in the associated state (referred to herein as “delta ratio” (“dR”)). In FIG. 2, this is represented as the difference between the highest FRET:F ratio and the lowest FRET:F ratio on the curve. • (2) High sensitivity at physiologically-relevant glucose concentrations when at physiologically-relevant temperatures. […]
(§2) The measurements were performed on proteins that were extracted from E. coli (in which they were produced) and purified in 50 mM Tris (pH 7.6, 1 mM CaCl_2, 100 mM NaCl_2). Measurements were performed using an Infinite (R) 200 plate reader or on a fluoroscopic microscope. FRET-based emission was measured by applying excitation at 475 nm and detecting emission at 640-800 nm. Direct fluorescence of the acceptor fluorophore was measured by applying excitation at 575 nm and detecting emission at 640-800 nm. Curves were generated from the measured points (typically 10) by a non-linear interpolation, and Kd and dR were extracted. […]

[2] = molecular target: T2, FRET-based glucose-detection molecule D267, glucose-binding region derived from E. coli mg1B (galactose binding protein), 16 = N (Escherichia coli, UniProt P0AEE5, F39N); assay: Kd of residue 16 variant at room temperature (D267)
T2 construct: made in E. coli, purified
T2 sequence (P0AEE5 24-332 F39N limits assumed): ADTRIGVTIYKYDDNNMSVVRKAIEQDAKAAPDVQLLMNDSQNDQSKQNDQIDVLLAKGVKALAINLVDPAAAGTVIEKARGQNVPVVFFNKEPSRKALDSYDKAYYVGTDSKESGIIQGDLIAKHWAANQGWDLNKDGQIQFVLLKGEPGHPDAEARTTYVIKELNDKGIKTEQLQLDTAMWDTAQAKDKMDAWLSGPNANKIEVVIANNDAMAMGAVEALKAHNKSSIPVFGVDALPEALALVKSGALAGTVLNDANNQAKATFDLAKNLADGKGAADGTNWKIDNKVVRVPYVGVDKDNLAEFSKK
Excerpt: as §1, §2

[3] = molecular target: T3, FRET-based glucose-detection molecule D278, SEQ ID No. 3, glucose-binding region derived from E. coli mg1B (galactose binding protein), residue 16 = Q (Escherichia coli, UniProt P0AEE5, DELINS298-299[…]/F39Q); assay: FRET:F ratio at different glucose concentrations, Kd extracted from curve (D278); settings: FIG. 5B
T3 construct: red acceptor fluorophore at N-terminus with linker; FRET sensor D278; made in E. coli, purified
T3 sequence (P0AEE5 other isoform, or with tags, fused parts or gaps with the stated changes): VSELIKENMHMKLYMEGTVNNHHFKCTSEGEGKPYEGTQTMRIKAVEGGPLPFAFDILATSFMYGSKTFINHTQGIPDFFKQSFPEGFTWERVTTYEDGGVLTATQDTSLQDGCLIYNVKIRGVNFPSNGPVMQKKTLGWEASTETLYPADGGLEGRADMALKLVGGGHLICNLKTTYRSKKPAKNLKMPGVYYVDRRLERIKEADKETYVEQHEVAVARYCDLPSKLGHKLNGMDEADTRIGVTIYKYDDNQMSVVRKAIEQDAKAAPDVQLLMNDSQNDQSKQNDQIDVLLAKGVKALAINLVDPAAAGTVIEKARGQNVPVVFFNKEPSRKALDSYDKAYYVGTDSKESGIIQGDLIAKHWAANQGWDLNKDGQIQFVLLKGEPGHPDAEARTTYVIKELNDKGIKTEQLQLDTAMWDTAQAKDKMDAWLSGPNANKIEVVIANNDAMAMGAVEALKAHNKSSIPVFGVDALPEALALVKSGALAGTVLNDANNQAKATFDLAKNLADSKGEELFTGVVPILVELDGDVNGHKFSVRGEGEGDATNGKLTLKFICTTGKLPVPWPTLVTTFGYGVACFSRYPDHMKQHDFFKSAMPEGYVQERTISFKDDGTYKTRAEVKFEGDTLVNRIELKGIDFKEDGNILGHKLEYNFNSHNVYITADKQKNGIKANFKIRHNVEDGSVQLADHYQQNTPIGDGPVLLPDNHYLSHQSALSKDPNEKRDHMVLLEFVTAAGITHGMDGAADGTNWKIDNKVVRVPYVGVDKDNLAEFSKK
Excerpt: (§3) Reference is also made to FIG. 2, which is a graph that illustrates, in a generalized manner, FRET behavior of molecule 20 (and of the molecules that it represents), in accordance with some applications of the invention. Three important features of molecules suitable for FRET-based glucose detection are: • (1) High contrast. That is, a large difference between the FRET:F ratio in the disassociated state and the FRET:F ratio in the associated state (referred to herein as “delta ratio” (“dR”)). […]
(§4) Reference is now made to FIG. 4, which is a set of graphs which show, for some of the molecules described hereinabove, the FRET:F ratio (y axis) at different glucose concentrations, measured at 35 degrees C.
as §2

[4] = molecular target: T4, FRET-based glucose-detection molecule D274, SEQ ID No. 1, glucose-binding region derived from E. coli mg1B (galactose binding protein), residue 16 = Q (Escherichia coli, UniProt P0AEE5, DELINS298-299[…]/F39Q); assay: FRET:F ratio at different glucose concentrations, Kd extracted from curve (D274); settings: FIG. 5B
T4 construct: red acceptor fluorophore at N-terminus; FRET sensor D274; made in E. coli, purified
T4 sequence (P0AEE5 other isoform, or with tags, fused parts or gaps with the stated changes): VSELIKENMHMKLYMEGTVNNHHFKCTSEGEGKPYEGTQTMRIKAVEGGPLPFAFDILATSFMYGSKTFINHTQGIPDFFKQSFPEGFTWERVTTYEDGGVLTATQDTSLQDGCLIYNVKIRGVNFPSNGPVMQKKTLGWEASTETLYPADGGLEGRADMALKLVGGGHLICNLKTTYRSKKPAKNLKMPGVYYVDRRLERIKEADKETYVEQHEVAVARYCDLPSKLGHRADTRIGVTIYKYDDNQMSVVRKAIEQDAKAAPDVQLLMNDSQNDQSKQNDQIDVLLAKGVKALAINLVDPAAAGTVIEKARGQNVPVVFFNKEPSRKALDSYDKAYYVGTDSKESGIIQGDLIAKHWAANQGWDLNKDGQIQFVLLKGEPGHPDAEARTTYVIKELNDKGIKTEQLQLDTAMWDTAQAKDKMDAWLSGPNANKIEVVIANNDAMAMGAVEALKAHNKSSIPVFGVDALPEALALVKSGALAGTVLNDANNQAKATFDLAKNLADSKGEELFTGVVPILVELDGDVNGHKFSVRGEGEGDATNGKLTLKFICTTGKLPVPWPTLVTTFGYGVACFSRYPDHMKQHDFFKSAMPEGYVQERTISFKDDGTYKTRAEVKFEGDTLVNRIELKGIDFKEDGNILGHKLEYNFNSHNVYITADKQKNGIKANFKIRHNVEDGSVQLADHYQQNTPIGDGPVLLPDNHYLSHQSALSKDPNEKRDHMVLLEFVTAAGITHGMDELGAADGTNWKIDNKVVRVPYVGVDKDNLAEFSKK
Excerpt: as §3, §4, §2

[5] = molecular target: T5, FRET-based glucose-detection molecule D263, glucose-binding region derived from E. coli mg1B (galactose binding protein), 16 = V (Escherichia coli, UniProt P0AEE5, F39V); assay: Kd of residue 16 variant at room temperature (D263)
T5 construct: made in E. coli, purified
T5 sequence (P0AEE5 24-332 F39V limits assumed): as the sequence (P0AEE5 24-332 F39N limits assumed) above, with N16V counted along it
Excerpt: as §1, §2

[6] = molecular target: T6, FRET-based glucose-detection molecule D277, SEQ ID No. 2, glucose-binding region derived from E. coli mg1B (galactose binding protein), residue 16 = Q (Escherichia coli, UniProt P0AEE5, DELINS298-299[…]/F39Q); assay: FRET:F ratio at different glucose concentrations, Kd extracted from curve (D277); settings: FIG. 5B
T6 construct: red acceptor fluorophore at N-terminus with linker; FRET sensor D277; made in E. coli, purified
T6 sequence (P0AEE5 other isoform, or with tags, fused parts or gaps with the stated changes): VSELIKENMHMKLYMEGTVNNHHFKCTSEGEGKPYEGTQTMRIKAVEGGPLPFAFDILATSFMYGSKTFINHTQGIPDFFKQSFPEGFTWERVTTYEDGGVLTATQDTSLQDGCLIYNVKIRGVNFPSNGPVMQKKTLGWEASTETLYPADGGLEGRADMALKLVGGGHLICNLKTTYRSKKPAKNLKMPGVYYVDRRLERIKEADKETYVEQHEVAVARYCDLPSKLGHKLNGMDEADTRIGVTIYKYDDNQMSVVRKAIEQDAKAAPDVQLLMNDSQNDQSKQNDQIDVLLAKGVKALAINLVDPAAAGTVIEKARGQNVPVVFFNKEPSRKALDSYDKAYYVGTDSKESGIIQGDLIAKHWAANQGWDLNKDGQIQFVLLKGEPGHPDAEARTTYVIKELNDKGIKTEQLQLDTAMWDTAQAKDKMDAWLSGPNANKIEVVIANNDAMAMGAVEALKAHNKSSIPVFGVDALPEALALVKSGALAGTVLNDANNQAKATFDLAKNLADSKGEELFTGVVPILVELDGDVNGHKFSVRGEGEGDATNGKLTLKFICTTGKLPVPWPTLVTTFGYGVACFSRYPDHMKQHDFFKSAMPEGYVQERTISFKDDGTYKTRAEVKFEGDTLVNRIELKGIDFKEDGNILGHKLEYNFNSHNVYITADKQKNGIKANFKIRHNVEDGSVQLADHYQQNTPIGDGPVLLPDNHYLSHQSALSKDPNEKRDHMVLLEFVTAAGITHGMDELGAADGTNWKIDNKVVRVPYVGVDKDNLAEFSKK
Excerpt: as §3, §4, §2

[7] = molecular target: T7, FRET-based glucose-detection molecule D279, SEQ ID No. 4, glucose-binding region derived from E. coli mg1B (galactose binding protein), residue 16 = Q (Escherichia coli, UniProt P0AEE5, DELINS299-299[…]/F39Q); assay: FRET:F ratio at different glucose concentrations, Kd extracted from curve (D279); settings: FIG. 5B
T7 construct: red acceptor fluorophore at N-terminus; FRET sensor D279; made in E. coli, purified
T7 sequence (P0AEE5 other isoform, or with tags, fused parts or gaps with the stated changes): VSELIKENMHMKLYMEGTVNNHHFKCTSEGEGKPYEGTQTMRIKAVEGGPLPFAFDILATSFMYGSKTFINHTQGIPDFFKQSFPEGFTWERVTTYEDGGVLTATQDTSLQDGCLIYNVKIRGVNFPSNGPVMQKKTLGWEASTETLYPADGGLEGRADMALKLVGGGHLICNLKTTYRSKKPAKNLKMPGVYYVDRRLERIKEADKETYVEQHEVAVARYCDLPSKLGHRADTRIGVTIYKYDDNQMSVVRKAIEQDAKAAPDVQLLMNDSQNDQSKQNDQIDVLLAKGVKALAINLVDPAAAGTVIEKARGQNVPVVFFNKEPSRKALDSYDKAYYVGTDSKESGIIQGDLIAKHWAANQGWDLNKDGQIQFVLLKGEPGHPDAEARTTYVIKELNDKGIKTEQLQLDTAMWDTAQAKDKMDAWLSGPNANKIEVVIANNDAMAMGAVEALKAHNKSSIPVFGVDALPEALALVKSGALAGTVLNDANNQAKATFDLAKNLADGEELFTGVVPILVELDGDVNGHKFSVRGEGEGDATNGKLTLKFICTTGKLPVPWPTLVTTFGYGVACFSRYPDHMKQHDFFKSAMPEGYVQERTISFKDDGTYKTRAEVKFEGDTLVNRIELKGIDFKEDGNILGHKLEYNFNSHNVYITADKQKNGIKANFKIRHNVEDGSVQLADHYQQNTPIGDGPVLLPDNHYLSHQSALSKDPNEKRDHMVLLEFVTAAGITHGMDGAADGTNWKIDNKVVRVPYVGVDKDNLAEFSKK
Excerpt: as §3, §4, §2

[8] = molecular target: T8, FRET-based glucose-detection molecule D241, glucose-binding region derived from E. coli mg1B (galactose binding protein), 16 = Q (Escherichia coli, UniProt P0AEE5, F39Q); assay: Kd of residue 16 variant at room temperature (D241)
T8 construct: made in E. coli, purified
T8 sequence (P0AEE5 24-332 F39Q limits assumed): as the sequence (P0AEE5 24-332 F39N limits assumed) above, with N16Q counted along it
Excerpt: as §1, §2

T1 sequence (P0AEE5 24-332 F39A limits assumed): as the sequence (P0AEE5 24-332 F39N limits assumed) above, with N16A counted along it

## OC[C@H]1OC(O)[C@H](O)[C@@H](O)[C@@H]1O (some centres unmarked) [glucose]
[1]
  Kd: 3.2 mM
[2]
  Kd: 9.4 mM
[3]
  Kd at different temperatures: Kd increased with temperature for all four molecules
[4]
  Kd at different temperatures: Kd increased with temperature for all four molecules; the change was greatest for D279, and smallest for D274
[5]
  Kd: 7.9 mM
[6]
  Kd at different temperatures: Kd increased with temperature for all four molecules
[7]
  Kd at different temperatures: Kd increased with temperature for all four molecules; the change was greatest for D279
[8]
  Kd: 0.3 mM
